In patent US20230085307A1, “PYRIDAZINONE COMPOUND AND HERBICIDE” (NISSAN CHEMICAL CORPORATION, priority 2019, published 2023):

Key:
oval-leafed pondweed [1] = test: Test Example 2: herbicidal activity, application during weed generation under submerged conditions (Table 17, symbol C); assay type: in vivo, oval-leafed pondweed (Monochoria vaginalis); details: AAH 320 g/ha; application during weed generation, submerged conditions
Summary of the method: (§1)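 Alluvial soil in Wagner pots was flooded to 4 cm depth and sown with the three weeds together; pots were kept in a greenhouse at 25° C. to 30° C. At the one to two leaf stage, an emulsion formulation diluted in water to a set rate went onto the water surface; scored three weeks later.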

redroot pigweed [2] = test: Test Example 4: herbicidal effect by soil treatment (Table 19, symbol N); assay type: in vivo, redroot pigweed (Amaranthus retroflexus); details: amount of applied herbicide 320 g/ha
Summary of the method: (§2)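 Soil-surface application: an emulsion agent diluted with water to the predetermined dose is sprayed uniformly over seeds lying under roughly 1.5 cm of sterilized diluvial soil. Boxes stay in a greenhouse at 25° C. to 30° C. Three weeks later, each species is graded on previously defined criteria.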

green foxtail = test: Test Example 4: herbicidal effect by soil treatment (Table 19, symbol G); assay type: in vivo, green foxtail (Setaria viridis); details: amount of applied herbicide 320 g/ha
Summary of the method: as §2

oval-leafed pondweed [3] = test: Test Example 1: herbicidal activity, application before weed generation under submerged conditions (Table 16, symbol C); assay type: in vivo, oval-leafed pondweed (Monochoria vaginalis); details: 320 g/ha applied herbicide
Summary of the method: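 Emulsion formulation, water-diluted to set dose, was put onto the flooded surface (4 cm depth, alluvial soil) the same day weeds were sown and 2.5-leaf rice transplanted. After 3 weeks at 25-30 °C under glass, each species was rated 0 (≤5% kill) to 5 (≥90% kill).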

redroot pigweed [4] = test: Test Example 5: herbicidal effect by foliage application, plastic box (Table 20, symbol N); assay type: in vivo, redroot pigweed (Amaranthus retroflexus); details: foliage application, 320 g/ha, evaluated three weeks after application
Summary of the method: (§3)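 Sow seeds spot-wise in sterilized diluvial soil; cover with ~1.5 cm soil. Grow 14 days in greenhouse, 25° C. to 30° C. Spray foliage with emulsion diluted to predetermined amount. Rate effect after 3 weeks.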

lambsquarters = test: Test Example 5: herbicidal effect by foliage application, plastic box (Table 20, symbol O); assay type: in vivo, lambsquarters (Chenopodium album); details: foliage application, 320 g/ha, evaluated three weeks after application
Summary of the method: as §3

barnyard grass [5] = test: Test Example 3: herbicidal effect by foliage application, Wagner pot (Table 18, symbol H); assay type: in vivo, barnyard grass (Echinochloa crus-galli); details: amount of applied herbicide 320 g/ha
Summary of the method: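 Plants were sown in alluvial soil held under 0.1–0.5 cm standing water and grown 14 days in a greenhouse at 25–30 °C. An emulsifiable formulation, water-diluted to the set dose, was then sprayed onto the foliage, and effects were scored three weeks later using previously defined criteria.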

velvetleaf = test: Test Example 4: herbicidal effect by soil treatment (Table 19, symbol M); assay type: in vivo, velvetleaf (Abutilon theophrasti); details: amount of applied herbicide 320 g/ha
Summary of the method: as §2

blackgrass = test: Test Example 4: herbicidal effect by soil treatment (Table 19, symbol J); assay type: in vivo, blackgrass (Alopecurus myosuroides); details: amount of applied herbicide 320 g/ha
Summary of the method: as §2

barnyard grass [6] = test: Test Example 4: herbicidal effect by soil treatment (Table 19, symbol H); assay type: in vivo, barnyard grass (Echinochloa crus-galli); details: amount of applied herbicide 320 g/ha
Summary of the method: as §2

persian speedwell [7] = test: Test Example 5: herbicidal effect by foliage application, plastic box (Table 20, symbol R); assay type: in vivo, Persian speedwell (Veronica persica); details: foliage application, 320 g/ha, evaluated three weeks after application
Summary of the method: as §3

persian speedwell [8] = test: Test Example 4: herbicidal effect by soil treatment (Table 19, symbol R); assay type: in vivo, Persian speedwell (Veronica persica); details: amount of applied herbicide 320 g/ha
Summary of the method: as §2

windgrass = test: Test Example 5: herbicidal effect by foliage application, plastic box (Table 20, symbol L); assay type: in vivo, windgrass (Apera spica-venti); details: foliage application, 320 g/ha, evaluated three weeks after application
Summary of the method: as §3

chickweed = test: Test Example 5: herbicidal effect by foliage application, plastic box (Table 20, symbol P); assay type: in vivo, common chickweed (Stellaria media); details: foliage application, 320 g/ha, evaluated three weeks after application
Summary of the method: as §3

Japanese bulrush = test: Test Example 2: herbicidal activity, application during weed generation under submerged conditions (Table 17, symbol B); assay type: in vivo, Japanese bulrush (Schoenoplectus juncoides); details: AAH 320 g/ha; application during weed generation, submerged conditions
Summary of the method: as §1

southern crabgrass = test: Test Example 5: herbicidal effect by foliage application, plastic box (Table 20, symbol F); assay type: in vivo, southern crabgrass (Digitaria ciliaris); details: foliage application, 320 g/ha, evaluated three weeks after application
Summary of the method: as §3

Structure (SMILES)	herbicidal effect rating, C: oval-leafed pondweed (oval-leafed pondweed [1])	N: redroot pigweed, herbicidal effect rating (redroot pigweed [2])	G: green foxtail, herbicidal effect rating (green foxtail)	Herbicidal effect on C: oval-leafed pondweed (grade 0-5) (oval-leafed pondweed [3])	herbicidal effect on N: redroot pigweed (criteria 0-5) (redroot pigweed [4])	herbicidal effect on O: lambsquarters (criteria 0-5) (lambsquarters)	herbicidal effect on H: barnyard grass (barnyard grass [5])	M: velvetleaf, herbicidal effect rating (velvetleaf)	J: blackgrass, herbicidal effect rating (blackgrass)	H: barnyard grass, herbicidal effect rating (barnyard grass [6])	herbicidal effect on R: persian speedwell (criteria 0-5) (persian speedwell [7])	R: persian speedwell, herbicidal effect rating (persian speedwell [8])	herbicidal effect on L: windgrass (criteria 0-5) (windgrass)	herbicidal effect on P: chickweed (criteria 0-5) (chickweed)	herbicidal effect rating, B: Japanese bulrush (Japanese bulrush)	herbicidal effect on F: southern crabgrass (criteria 0-5) (southern crabgrass)	also measured
CCCC(=O)Oc1c(C)nn(C)c(=O)c1-c1c(-c2ccc(Br)cc2)sc2ccc(F)cc12 [2-206]	4 (Herbicidal rate of 70% or more and less than 90%)	5 (Herbicidal rate of 90% or more (almost completely withered))	3 (Herbicidal rate of 40% or more and less than 70%)	4 (Herbicidal rate of 70% or more and less than 90%)	5 (Herbicidal rate of 90% or more (almost completely withered))	5 (Herbicidal rate of 90% or more (almost completely withered))	5 (Herbicidal rate of 90% or more (almost completely withered))	2 (Herbicidal rate of 20% or more and less than 40%)	0 (Herbicidal rate of 5% or less (almost no effect))	2 (Herbicidal rate of 20% or more and less than 40%)	5 (Herbicidal rate of 90% or more (almost completely withered))	5 (Herbicidal rate of 90% or more (almost completely withered))	4 (Herbicidal rate of 70% or more and less than 90%)	5 (Herbicidal rate of 90% or more (almost completely withered))	3 (Herbicidal rate of 40% or more and less than 70%)	3 (Herbicidal rate of 40% or more and less than 70%)	–
CCc1ccc(-c2sc3ccc(F)cc3c2-c2c(O)c(C)nn(C)c2=O)cc1 [2-207]	1 (Herbicidal rate of 5% or more and less than 20%)	5 (Herbicidal rate of 90% or more (almost completely withered))	0 (Herbicidal rate of 5% or less (almost no effect))	3 (Herbicidal rate of 40% or more and less than 70%)	5 (Herbicidal rate of 90% or more (almost completely withered))	5 (Herbicidal rate of 90% or more (almost completely withered))	4 (Herbicidal rate of 70% or more and less than 90%)	5 (Herbicidal rate of 90% or more (almost completely withered))	0 (Herbicidal rate of 5% or less (almost no effect))	2 (Herbicidal rate of 20% or more and less than 40%)	5 (Herbicidal rate of 90% or more (almost completely withered))	5 (Herbicidal rate of 90% or more (almost completely withered))	4 (Herbicidal rate of 70% or more and less than 90%)	5 (Herbicidal rate of 90% or more (almost completely withered))	3 (Herbicidal rate of 40% or more and less than 70%)	4 (Herbicidal rate of 70% or more and less than 90%)	–
Cc1nn(C)c(=O)c(-c2c(-c3cccc(OCC(C)C)c3)sc3ccc(F)cc23)c1O [2-221]	3 (Herbicidal rate of 40% or more and less than 70%)	5 (Herbicidal rate of 90% or more (almost completely withered))	5 (Herbicidal rate of 90% or more (almost completely withered))	5 (Herbicidal rate of 90% or more (almost completely withered))	5 (Herbicidal rate of 90% or more (almost completely withered))	5 (Herbicidal rate of 90% or more (almost completely withered))	5 (Herbicidal rate of 90% or more (almost completely withered))	4 (Herbicidal rate of 70% or more and less than 90%)	5 (Herbicidal rate of 90% or more (almost completely withered))	5 (Herbicidal rate of 90% or more (almost completely withered))	5 (Herbicidal rate of 90% or more (almost completely withered))	5 (Herbicidal rate of 90% or more (almost completely withered))	5 (Herbicidal rate of 90% or more (almost completely withered))	5 (Herbicidal rate of 90% or more (almost completely withered))	3 (Herbicidal rate of 40% or more and less than 70%)	5 (Herbicidal rate of 90% or more (almost completely withered))	–
Cc1nn(C)c(=O)c(-c2c(-c3cccc(OC(C)(C)C)c3)sc3ccc(F)cc23)c1O [2-223]	0 (Herbicidal rate of 5% or less (almost no effect))	–	–	2 (Herbicidal rate of 20% or more and less than 40%)	4 (Herbicidal rate of 70% or more and less than 90%)	4 (Herbicidal rate of 70% or more and less than 90%)	5 (Herbicidal rate of 90% or more (almost completely withered))	–	–	–	5 (Herbicidal rate of 90% or more (almost completely withered))	–	5 (Herbicidal rate of 90% or more (almost completely withered))	5 (Herbicidal rate of 90% or more (almost completely withered))	2 (Herbicidal rate of 20% or more and less than 40%)	3 (Herbicidal rate of 40% or more and less than 70%)	herbicidal effect on N: redroot pigweed (redroot pigweed [2]): 3 (Herbicidal rate of 40% or more and less than 70%); herbicidal effect on G: green foxtail (green foxtail): 3 (Herbicidal rate of 40% or more and less than 70%); herbicidal effect on M: velvetleaf (velvetleaf): 1 (Herbicidal rate of 5% or more and less than 20%); herbicidal effect on J: blackgrass (blackgrass): 0 (Herbicidal rate of 5% or less (almost no effect)); herbicidal effect on H: barnyard grass (barnyard grass [6]): 3 (Herbicidal rate of 40% or more and less than 70%); herbicidal effect on R: persian speedwell (persian speedwell [8]): 4 (Herbicidal rate of 70% or more and less than 90%)
